Data from patent US20250064941A1, “SIGLEC LIGANDS, CONJUGATES, AND METHODS OF USE THEREOF” (Osprey Biopharmaceuticals, Inc., priority 2023, published 2025).

Key:
[1] = molecular target: cynomolgus Siglec-2/CD22 (Macaca fascicularis, UniProt A0A2K5WCZ6); experiment: biochemical; format: binding; conditions: SPR, steady-state analysis; read-out: Affinity cyno CD22
Procedure, shortened: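 Compound binding measured by steady-state SPR analysis, 120 s dissociation, in HEPES-NaCl-Tween buffer pH 7.5 containing 1% DMSO, DMSO solvent-corrected. Surface: cyno CD22, sialic acids first stripped by SialoExo for 4 h at 37° C., then amine-coupled onto CM5.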

[2] = molecular target: T1, human Siglec-2/CD22 protein (Homo sapiens, UniProt P20273); experiment: SPR binding affinity to human CD22; conditions: steady-state analysis
T1 construct: purchased Acro Biosystems SI2-H82E3
T1 sequence (P20273 20-847): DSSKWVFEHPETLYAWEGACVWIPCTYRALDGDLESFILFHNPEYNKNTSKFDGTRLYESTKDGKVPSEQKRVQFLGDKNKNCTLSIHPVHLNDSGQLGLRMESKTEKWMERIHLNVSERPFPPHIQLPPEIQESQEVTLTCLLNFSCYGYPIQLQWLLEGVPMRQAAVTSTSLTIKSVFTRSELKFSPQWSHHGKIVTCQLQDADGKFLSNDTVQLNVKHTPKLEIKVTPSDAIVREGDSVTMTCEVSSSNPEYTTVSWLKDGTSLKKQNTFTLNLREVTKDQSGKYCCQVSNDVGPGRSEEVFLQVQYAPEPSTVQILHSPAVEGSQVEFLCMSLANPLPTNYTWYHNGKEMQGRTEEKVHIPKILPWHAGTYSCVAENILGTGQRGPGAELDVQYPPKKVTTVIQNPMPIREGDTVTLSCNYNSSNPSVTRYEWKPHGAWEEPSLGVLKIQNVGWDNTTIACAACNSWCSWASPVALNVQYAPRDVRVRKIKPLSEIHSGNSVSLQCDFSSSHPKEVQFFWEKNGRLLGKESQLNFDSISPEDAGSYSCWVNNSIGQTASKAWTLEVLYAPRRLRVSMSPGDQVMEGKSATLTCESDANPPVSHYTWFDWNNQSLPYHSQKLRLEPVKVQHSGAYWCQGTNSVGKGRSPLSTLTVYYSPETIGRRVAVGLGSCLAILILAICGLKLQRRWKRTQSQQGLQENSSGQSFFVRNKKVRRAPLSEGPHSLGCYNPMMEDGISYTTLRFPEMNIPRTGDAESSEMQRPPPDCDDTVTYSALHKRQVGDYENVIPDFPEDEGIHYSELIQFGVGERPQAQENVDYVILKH
Procedure, shortened: (§1)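 Steady-state fits gave the affinities. Before capture on a streptavidin surface, biotinylated CD22 had native sialic acids stripped (SialoExo, 4 hours, 37° C.). Running buffer: 10 mM HEPES pH 7.5, 150 mM NaCl, 0.05% Tween-20, 1% DMSO, with DMSO solvent correction.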

[3] = molecular target: T2, mouse Siglec-2-Fc-Avi (CD22) (Mus musculus, UniProt P35329); experiment: SPR binding affinity to mouse CD22; conditions: steady-state analysis
T2 construct: made in house
T2 sequence (P35329 22-708 limits assumed): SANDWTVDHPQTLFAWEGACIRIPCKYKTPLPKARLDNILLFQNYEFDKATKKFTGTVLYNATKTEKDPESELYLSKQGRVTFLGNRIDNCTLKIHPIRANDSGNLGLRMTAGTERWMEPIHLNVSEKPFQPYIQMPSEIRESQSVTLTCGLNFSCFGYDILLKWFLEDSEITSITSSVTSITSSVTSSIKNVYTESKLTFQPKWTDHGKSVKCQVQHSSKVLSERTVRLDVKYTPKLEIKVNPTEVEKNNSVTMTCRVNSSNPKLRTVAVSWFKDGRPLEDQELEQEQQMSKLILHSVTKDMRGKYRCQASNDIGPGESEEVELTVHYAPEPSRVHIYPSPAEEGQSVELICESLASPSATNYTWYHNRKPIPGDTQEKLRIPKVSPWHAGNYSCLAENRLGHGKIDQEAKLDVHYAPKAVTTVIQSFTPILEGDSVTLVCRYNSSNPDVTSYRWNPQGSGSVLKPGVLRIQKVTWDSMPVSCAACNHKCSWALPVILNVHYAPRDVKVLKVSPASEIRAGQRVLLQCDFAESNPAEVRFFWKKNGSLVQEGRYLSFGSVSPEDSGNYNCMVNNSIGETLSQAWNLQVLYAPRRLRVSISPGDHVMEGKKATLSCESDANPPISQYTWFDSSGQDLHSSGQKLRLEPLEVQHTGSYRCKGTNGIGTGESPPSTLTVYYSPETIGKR
Procedure, shortened: as §1

cynomolgus Siglec-2/CD22, sequence (A0A2K5WCZ6 entry or part of it): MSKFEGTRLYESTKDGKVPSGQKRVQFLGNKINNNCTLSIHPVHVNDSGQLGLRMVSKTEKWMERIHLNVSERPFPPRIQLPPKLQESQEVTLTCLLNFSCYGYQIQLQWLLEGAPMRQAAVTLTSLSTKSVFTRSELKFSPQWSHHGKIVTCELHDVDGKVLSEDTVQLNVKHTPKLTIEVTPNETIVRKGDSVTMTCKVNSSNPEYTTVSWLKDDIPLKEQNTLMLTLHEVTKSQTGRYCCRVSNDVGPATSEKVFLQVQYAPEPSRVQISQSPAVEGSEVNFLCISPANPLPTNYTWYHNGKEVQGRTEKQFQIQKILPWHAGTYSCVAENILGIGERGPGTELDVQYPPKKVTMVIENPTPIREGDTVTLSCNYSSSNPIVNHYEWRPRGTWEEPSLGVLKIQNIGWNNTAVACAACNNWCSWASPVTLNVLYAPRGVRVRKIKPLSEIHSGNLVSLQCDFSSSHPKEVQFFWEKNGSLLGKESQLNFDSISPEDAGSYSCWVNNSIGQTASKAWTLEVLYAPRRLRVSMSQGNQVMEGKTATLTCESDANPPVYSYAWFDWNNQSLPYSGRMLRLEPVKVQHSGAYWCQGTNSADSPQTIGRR

For `C#CCOCCCCCCO[C@]1(C(=O)O)C[C@H](O)[C@@H](Nc2c(N)c(=O)c2=O)[C@H]([C@H](O)[C@H](O)CNC(=O)Cc2ccc(Cl)cc2)O1` [Compound 190, (2R,4S,5R,6R)-5-((2-amino-3,4-dioxocyclobut-1-en-1-yl)amino)-6-((1R,2R)-3-(2-(4-chlorophenyl)acetamido)-1,2-dihydroxypropyl)-4-hydroxy-2-((6-(prop-2-yn-1-yloxy)hexyl)oxy)tetrahydro-2H-pyran-2-carboxylic acid], the Kd [1] was < 1000 nM, the Kd [2] was < 1 µM and the Kd [3] was 1 to 10 µM.

For `C#CCOCCCCCCO[C@]1(C(=O)O)C[C@H](O)[C@@H](NC(=O)COC)[C@H]([C@H](O)[C@H](O)CNC(=O)Cc2ccc(Cl)cc2)O1` [Compound 192, (2R,4S,5R,6R)-6-((1R,2R)-3-(2-(4-chlorophenyl)acetamido)-1,2-dihydroxypropyl)-4-hydroxy-5-(2-methoxyacetamido)-2-((6-(prop-2-yn-1-yloxy)hexyl)oxy)tetrahydro-2H-pyran-2-carboxylic acid], the Kd [1] was 1000 to 10000 nM, the Kd [2] was 1 to 10 µM and the Kd [3] was > 10 µM.

`C#CCOCCCCCCO[C@]1(C(=O)O)C[C@H](O)[C@@H](NC(=O)NCC(F)(F)F)[C@H]([C@H](O)[C@H](O)CNC(=O)Cc2ccc(Cl)cc2)O1` [Compound 193, (2R,4S,5R,6R)-6-((1R,2R)-3-(2-(4-chlorophenyl)acetamido)-1,2-dihydroxypropyl)-4-hydroxy-2-((6-(prop-2-yn-1-yloxy)hexyl)oxy)-5-(3-(2,2,2-trifluoroethyl)ureido)tetrahydro-2H-pyran-2-carboxylic acid] was tested, and the Kd [1] was 1000 to 10000 nM, the Kd [2] was 1 to 10 µM and the Kd [3] was 1 to 10 µM.

In the case of `O=C(Cc1ccc(Cl)cc1)NC[C@@H](O)[C@@H](O)[C@@H]1O[C@@](SCc2ccc(C(=O)O)cc2)(C(=O)O)C[C@H](O)[C@H]1NC(=O)CO` [Compound 195, (2S,4S,5R,6R)-2-((4-carboxybenzyl)thio)-6-((1R,2R)-3-(2-(4-chlorophenyl)acetamido)-1,2-dihydroxypropyl)-4-hydroxy-5-(2-hydroxyacetamido)tetrahydro-2H-pyran-2-carboxylic acid], the Kd [1] is reported as < 1000 nM, the Kd [2] is reported as < 1 µM and the Kd [3] is reported as < 1 µM.

`C#CCOCCOCCO[C@]1(C(=O)O)C[C@H](O)[C@@H](NC(=O)CO)[C@H]([C@H](O)[C@H](O)CNC(=O)Cc2ccc3[nH]ccc3c2)O1` [Compound 196, (2R,4S,5R,6R)-6-((1R,2R)-3-(2-(1H-indol-5-yl)acetamido)-1,2-dihydroxypropyl)-4-hydroxy-5-(2-hydroxyacetamido)-2-(2-(2-(prop-2-yn-1-yloxy)ethoxy)ethoxy)tetrahydro-2H-pyran-2-carboxylic acid] was tested, and the Kd [1] was < 1000 nM, the Kd [2] was < 1 µM and the Kd [3] was 1 to 10 µM.

In the case of `C#CCOCCOCCO[C@]1(C(=O)O)C[C@H](O)[C@@H](NC(=O)CO)[C@H]([C@H](O)[C@H](O)CNC(=O)Cc2ccc(O)c(Cl)c2)O1` [Compound 197, (2R,4S,5R,6R)-6-((1R,2R)-3-(2-(3-chloro-4-hydroxyphenyl)acetamido)-1,2-dihydroxypropyl)-4-hydroxy-5-(2-hydroxyacetamido)-2-(2-(2-(prop-2-yn-1-yloxy)ethoxy)ethoxy)tetrahydro-2H-pyran-2-carboxylic acid], the Kd [1] is reported as > 10000 nM, the Kd [2] is reported as > 10 µM and the Kd [3] is reported as > 10 µM.

`C#CCOCCOCCO[C@]1(C(=O)O)C[C@H](O)[C@@H](NC(=O)CO)[C@H]([C@H](O)[C@H](O)CNC(=O)c2ccc(O)cc2)O1` [Compound 198, (2R,4S,5R,6R)-6-((1R,2R)-1,2-dihydroxy-3-(4-hydroxybenzamido)propyl)-4-hydroxy-5-(2-hydroxyacetamido)-2-(2-(2-(prop-2-yn-1-yloxy)ethoxy)ethoxy)tetrahydro-2H-pyran-2-carboxylic acid] was tested, and the Kd [1] was > 10000 nM, the Kd [2] was > 10 µM and the Kd [3] was > 10 µM.

In the case of `C#CCOCCOCCO[C@]1(C(=O)O)C[C@H](O)[C@@H](NC(=O)NCC(F)(F)F)[C@H]([C@H](O)[C@H](O)CNC(=O)Cc2ccc(-c3ccc(O)cc3)cc2)O1` [Compound 199, (2R,4S,5R,6R)-6-((1R,2R)-1,2-dihydroxy-3-(2-(4′-hydroxy-[1,1′-biphenyl]-4-yl)acetamido)propyl)-4-hydroxy-2-(2-(2-(prop-2-yn-1-yloxy)ethoxy)ethoxy)-5-(3-(2,2,2-trifluoroethyl)ureido)tetrahydro-2H-pyran-2-carboxylic acid], the Kd [1] is reported as > 10000 nM, the Kd [2] is reported as > 10 µM and the Kd [3] is reported as > 10 µM.

For `C#CCOCCOCCO[C@]1(C(=O)O)C[C@H](O)[C@@H](NC(=O)CO)[C@H]([C@H](O)[C@H](O)CNC(=O)C[C@H]2CC[C@@H](O)CC2)O1` [Compound 200, (2R,4S,5R,6R)-6-((1R,2R)-1,2-dihydroxy-3-(2-((1s,4S)-4-hydroxycyclohexyl)acetamido)propyl)-4-hydroxy-5-(2-hydroxyacetamido)-2-(2-(2-(prop-2-yn-1-yloxy)ethoxy)ethoxy)tetrahydro-2H-pyran-2-carboxylic acid], the Kd [1] was > 10000 nM, the Kd [2] was > 10 µM and the Kd [3] was > 10 µM.

With `C#CCOCCOCCO[C@]1(C(=O)O)C[C@H](O)[C@@H](NC(=O)CO)[C@H]([C@H](O)[C@H](O)CNC(=O)c2cccc(Cl)c2)O1` [Compound 201, (2R,4S,5R,6R)-6-((1R,2R)-3-(3-chlorobenzamido)-1,2-dihydroxypropyl)-4-hydroxy-5-(2-hydroxyacetamido)-2-(2-(2-(prop-2-yn-1-yloxy)ethoxy)ethoxy)tetrahydro-2H-pyran-2-carboxylic acid] the Kd [1] was > 10000 nM, the Kd [2] was > 10 µM and the Kd [3] was > 10 µM.

`C#CCOCCOCCO[C@]1(C(=O)O)C[C@H](O)[C@@H](NC(=O)CO)[C@H]([C@H](O)[C@H](O)CNC(=O)c2ccccc2)O1` [Compound 202, (2R,4S,5R,6R)-6-((1R,2R)-3-benzamido-1,2-dihydroxypropyl)-4-hydroxy-5-(2-hydroxyacetamido)-2-(2-(2-(prop-2-yn-1-yloxy)ethoxy)ethoxy)tetrahydro-2H-pyran-2-carboxylic acid] was tested, and the Kd [1] was < 1000 nM, the Kd [2] was > 10 µM and the Kd [3] was 1 to 10 µM.

With `CCCCCC[C@H](O)[C@]1(C(=O)O)C[C@H](O)[C@@H](NC(=O)CO)[C@H]([C@H](O)[C@H](O)CNC(=O)Cc2ccc(Cl)cc2)O1` [Compound 203, (2S,4S,5R,6R)-6-((1R,2R)-3-(2-(4-chlorophenyl)acetamido)-1,2-dihydroxypropyl)-4-hydroxy-5-(2-hydroxyacetamido)-2-((S)-1-hydroxyheptyl)tetrahydro-2H-pyran-2-carboxylic acid] the Kd [1] was < 1000 nM, the Kd [2] was < 1 µM and the Kd [3] was 1 to 10 µM.

In the case of `C#CCCOc1ccc(CO[C@]2(C(=O)O)C[C@H](O)[C@@H](NC(N)=O)[C@H]([C@H](O)[C@H](O)CNC(=O)Cc3ccc(Cl)cc3)O2)cc1` [Compound 205, (2R,4S,5R,6R)-2-((4-(but-3-yn-1-yloxy)benzyl)oxy)-6-((1R,2R)-3-(2-(4-chlorophenyl)acetamido)-1,2-dihydroxypropyl)-4-hydroxy-5-ureidotetrahydro-2H-pyran-2-carboxylic acid], the Kd [1] is reported as < 1000 nM, the Kd [2] is reported as < 1 µM and the Kd [3] is reported as < 1 µM.
